# Results published in patent US20200385423A1, “USE OF EXCITATORY NERVE INJURY-RELATED POLYPEPTIDE IN PREVENTING, ALLEVIATING OR TREATING PAIN” (Biocells (Beijing) Biotech Co., Ltd., priority 2016, published 2020).
# Key:
# Format in all cases: in vivo, rat
# [1] = tested on: rats; experiment: Acute toxicity tests on rats; conditions: dose of 1000 mg/kg body weight
# Experimental: Acute toxicity tests were performed on rats.
# [2] = tested on: SD rats; experiment: Hot plate experiment in rats with sciatic nerve ligation; conditions: for paw lifting time threshold due to heating pain at surgical side after administration: P5 0.2 μg/kg caudal vein, ibuprofen 50 mg/kg intragastric
# Experimental: Eighteen male SD rats of 240-260 g (purchased from Huafukangcheng Co., Ltd.) were selected as experimental rats, and divided into three groups with six rats in each group for a hot plate experiment, including a group administered with Polypeptide P5 at a dose of 0.2 μg/kg, a group administered with normal saline and a group administered with positive control drug (ibuprofen, 50 mg/kg). Screening was conducted before the experiment.
# (§1) 4.0 chromic catguts (purchased from Shandong Boda Medical Products Co., Ltd.) were immersed into normal saline (purchased from Shijiazhuang Four Medicine Co., Ltd., National Pharmaceutical Standard H13023200) for 30 minutes for softening. Rats were shaved in the middle of their thighs, and wiped with iodine. Wound at 1 cm below the epidermis was created with a scissor, and then a J31060 hemostat was used to tear the biceps femoris. The sciatic nerve was thus exposed at the middle of the thighs. The end proximal to the leg was the trigeminal sciatic nerve. The sciatic nerve at the middle of the thighs was gently ligated four times with the 4.0 chromic catguts. The force was deemed appropriate if muscles near the ligation site slightly trembled. The adjacent ligation sites were 1 mm apart. Then muscles and epidermal tissues were sutured separately.
# (§2) Before the experiment, the rats with successful surgery in the test group were injected via caudal vein with Peptide P5 in normal saline (dose at 0.2 μg/kg). Rats in normal saline group were intraperitoneally injected with 0.3 mL of normal saline. The positive drug group was administered via intragastric infusion with ibuprofen suspension (purchased from Shanghai Qiangsheng Pharmaceutical Co., Ltd., National Pharmaceutical Standard H19991011) at a dose of 50 mg/kg.
# Hot plate experiments were performed on rats 7 days after surgery. Rats were feed properly, and the indoor environment was maintained at about 25° C. The temperature of the YLS-6B intelligent hot plate instrument (purchased from Beijing Zhongshi Di Chuang Technology Development Co., Ltd.) was set at about 55° C. The rats were placed on the hot plate instrument in a closed, detachable, and transparent plexiglass jar, and the time of occurrence of the hind paw licking or jump reaction was recorded. If there no reaction was observed from the rats with administration 20 seconds after placement in the jar, the SD rats were taken out to avoid scalding the paws due to too long heating. The pain threshold of such rats was calculated as 20 seconds. Each rat was tested twice in succession with the interval of at least 30 seconds. The average of results was calculated.
# At the end of the experiment, the heating pain response time (i.e., pain threshold in second) of rats in the normal saline control group and individual drug-administered groups before administration and 10 min, 70 min, and 130 min after administration was recorded.
# EXCEL's T-test function (two-tailed variance) was used to analyze the statistical difference between the paw lifting time thresholds due to heating pain of pre-modeling and post-modeling experimental rats to evaluate whether or not the modeling was successful. The difference among the heating pain time thresholds before administration and at each time point after administration was then analyzed to evaluate the pharmaceutical efficacy.
# [3] = tested on: SD rats; experiment: Needling experiment (vonFrey probe) in rats with sciatic nerve ligation; conditions: for paw lifting threshold due to needling at surgical side after administration: P5 0.2 μg/kg caudal vein, ibuprofen 50 mg/kg intragastric
# Experimental: Eighteen male SD rats of 240-260 g (purchased from Huafukangcheng Co., Ltd.) were selected as experimental rats, and divided into three groups with six rats in each group for a needling experiment, including a group administered with the polypeptide at a dose of 0.2 μg/kg, a normal saline group and a positive control drug group (ibuprofen, 50 mg/kg).
# as §1, §2
# Fourteen days after surgery, the rats in the administration groups were tested before administration and 10 min\70 min\130 min after administration. The experimental rats were placed in a plexiglass observation chamber to acclimate the environment for 5 minutes until the rats no longer looked around. The ZS-CTY foot needling system (purchased from Beijing Zhongshi Di Chuang Technology Development Co., Ltd.) was connected to a win7 32-bit computer. The test software was opened to calibrate the zero point of the instrument, and then calibrate again after a 10 g weight was added. The vonFrey probe was used to slowly and gently stimulate the middle parts of the testing hind paws of the rats to observe the paw withdrawal reaction of the rats. […] The paw withdrawal reaction of rats due to physical activity was excluded. The reaction was recorded twice at each time point, and averaged to obtain paw lifting force thresholds (in g) due to needling. The foot needling system (purchased from Beijing Zhongshi Di Chuang Technology Development Co., Ltd.; lot. number: 20160101060001) was adjusted to zero with a 10 g weight, there was still a fundamental read fluctuation when the bottom of the rats' paws was needled. The fluctuation was generally between +3 and +5 g, which should be subtracted from the final value. If there was still a baseline, it should be removed.
# EXCEL's T-test function (two-tailed variance) was used to analyze the statistical difference in paw lifting force thresholds due to needling between the untreated side and surgical side in the experimental rats to evaluate whether or not the modeling was successful. The difference among the needling pain force thresholds before administration and at each time point after administration was then analyzed to evaluate the pharmaceutical efficacy and effect duration.
# [4] = P5 0.2 μg/kg, ibuprofen 50 mg/kg
SMILES,acute toxicity [1],paw lifting time threshold due to heating pain at surgical side after administration ([2]; 10 min after administration),paw lifting time threshold due to heating pain at surgical side after administration ([2]; 70 min after administration),paw lifting time threshold due to heating pain at surgical side after administration ([2]; 130 min after administration),"duration of therapeutic (analgesic) effect, hot plate experiment [2, 4]","paw lifting time threshold due to heating pain, surgical side before administration ([2]; baseline 7 days after surgery, before administration, hot plate about 55° C.)","paw lifting time threshold due to heating pain, pre-modeling (control) ([2]; baseline of the group before modeling, hot plate about 55° C.)",paw lifting threshold due to needling at surgical side after administration ([3]; 10 min after administration),paw lifting threshold due to needling at surgical side after administration ([3]; 70 min after administration),paw lifting threshold due to needling at surgical side after administration ([3]; 130 min after administration),"duration of therapeutic (analgesic) effect, needling experiment [3, 4]","paw lifting threshold due to needling at surgical side before administration ([3]; baseline 14 days after surgery, before administration)","paw lifting threshold due to needling, healthy side (control) ([3]; healthy side of the group, control value)"
CC[C@H](C)[C@H](NC(=O)[C@H](CCC(=O)O)NC(=O)[C@@H](NC(=O)[C@H](CC(=O)O)NC(=O)[C@H](CC(C)C)NC(=O)[C@H](CC(C)C)NC(=O)[C@H](CCCCN)NC(=O)[C@H](CCC(=O)O)NC(=O)[C@H](Cc1ccc(O)cc1)NC(=O)[C@H](CCCNC(=N)N)NC(=O)[C@H](CCCNC(=N)N)NC(=O)[C@H](CCCNC(=N)N)NC(=O)[C@H](CCC(N)=O)NC(=O)[C@H](CCCNC(=N)N)NC(=O)[C@H](CCCNC(=N)N)NC(=O)[C@H](CCCCN)NC(=O)[C@H](CCCCN)NC(=O)[C@H](CCCNC(=N)N)NC(=O)CNC(=O)[C@@H](N)Cc1ccc(O)cc1)[C@@H](C)O)C(=O)O [Polypeptide P5],no lethal effect and other obvious toxic side effects,–,–,–,–,–,–,–,–,–,–,–,–
CC(C)Cc1ccc(C(C)C(=O)O)cc1 (stereo not shown) [ibuprofen],–,5.74 s,4.64 s,4.19 s,< 130 min,3.95 s,12.5 s,46.24 g,36.21 g,38.88 g,< 130 min,28.72 g,73.65 g
